Measurements from PMC8372318, “Automated affinity selection for rapid discovery of peptide binders” (Chemical Science, 2021).
Square brackets hold non-standard residues; d marks the D form. Ends that are not written are not given here. Peptide text beside a SMILES is read from it. * marks the point of attachment. Biotin = O=C1N[C@H]2[C@H](CS[C@H]2CCCCC(=O)*)N1; Phe(4-CH2NH2) = NCc1ccc(C[C@H](N)C(=O)O)cc1; Arg(Me2s) = CN=C(NC)NCCC[C@H](N)C(=O)O; hArg = N=C(N)NCCCC[C@H](N)C(=O)O; Cha = N[C@@H](CC1CCCCC1)C(=O)O; Lys(Me) = CNCCCC[C@H](N)C(=O)O; Cba = N[C@@H](CC1CCC1)C(=O)O; PEG4 = NCCOCCOCCOCCOCCC(=O)O; Pip = O=C(O)[C@@H]1CCCCN1; Dab = NCC[C@H](N)C(=O)O

T1: recombinant menin protein (Homo sapiens, UniProt O00255)
T1 sequence (O00255 1-610): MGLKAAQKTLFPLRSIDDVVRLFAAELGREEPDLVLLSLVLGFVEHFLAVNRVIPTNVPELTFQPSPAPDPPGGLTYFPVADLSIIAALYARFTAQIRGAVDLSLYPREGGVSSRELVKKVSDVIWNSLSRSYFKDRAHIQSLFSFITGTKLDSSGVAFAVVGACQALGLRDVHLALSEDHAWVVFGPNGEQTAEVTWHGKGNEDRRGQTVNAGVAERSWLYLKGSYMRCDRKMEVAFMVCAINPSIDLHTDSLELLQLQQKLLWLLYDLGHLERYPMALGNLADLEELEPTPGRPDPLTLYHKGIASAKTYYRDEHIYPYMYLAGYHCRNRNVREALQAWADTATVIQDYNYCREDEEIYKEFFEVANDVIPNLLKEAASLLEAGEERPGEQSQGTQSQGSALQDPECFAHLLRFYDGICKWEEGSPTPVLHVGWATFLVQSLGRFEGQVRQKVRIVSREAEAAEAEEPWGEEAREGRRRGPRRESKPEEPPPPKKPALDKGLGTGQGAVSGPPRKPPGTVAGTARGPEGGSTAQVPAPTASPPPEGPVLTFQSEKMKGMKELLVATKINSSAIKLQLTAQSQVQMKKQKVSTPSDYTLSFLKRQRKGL

T2: tMBM3 (truncated MLL menin binding motif) (Homo sapiens, also: additional C-terminal Arg)
T2 chain: RFPARPR

B1: menin (protein)
chain: T1 sequence (O00255 1-610)

Columns and labels:
[1] = target: T1, recombinant menin protein; experiment: Bio-layer interferometry peptide-binding validation (Octet RED96)
Description: Individual peptide-binding validation was performed using the ForteBio Octet RED96 BLI
system (Octet RED96), with the temperature at 30 °C and agitation speed at 1,000 rpm. In brief,
streptavidin (SA) biosensor tips were dipped into 200 μL of 1.0 μM biotinylated peptide solution
(in the kinetic buffer (K.B.): 1 × PBS with 0.1% BSA and 0.02% tween) to immobilize the peptides.
The tips loaded with peptides were then moved into wells containing various concentrations
After the 180 s association step, the tips were dipped back into the K.B. to
obtain the dissociation curve. Buffer-only and protein-only conditions (at the highest sampled
protein concentration) were used as references for background subtraction. The association and
dissociation curves were fitted with the ForteBio Biosystems Data Analysis Software under 7
experimental conditions (n = 7, global fitting algorithm, binding model 1:1) to obtain the apparent
dissociation constant (K D).
The apparent binding affinity was reported from the 1:1 mode kinetic fitting results ( KD is
calculated by dividing the off-rate by on-rate) for hit 1 and hit 6.
calculations, as an approximation.

human ACE2 = human ACE2 (Homo sapiens, UniProt Q9BYF1); format: binding; details: highest tested peptide concentration 1000 nM; also biosensor alone
[2] = target: T2, tMBM3 (truncated MLL menin binding …); experiment: BLI

Sequence of human ACE2 (Q9BYF1 18-805): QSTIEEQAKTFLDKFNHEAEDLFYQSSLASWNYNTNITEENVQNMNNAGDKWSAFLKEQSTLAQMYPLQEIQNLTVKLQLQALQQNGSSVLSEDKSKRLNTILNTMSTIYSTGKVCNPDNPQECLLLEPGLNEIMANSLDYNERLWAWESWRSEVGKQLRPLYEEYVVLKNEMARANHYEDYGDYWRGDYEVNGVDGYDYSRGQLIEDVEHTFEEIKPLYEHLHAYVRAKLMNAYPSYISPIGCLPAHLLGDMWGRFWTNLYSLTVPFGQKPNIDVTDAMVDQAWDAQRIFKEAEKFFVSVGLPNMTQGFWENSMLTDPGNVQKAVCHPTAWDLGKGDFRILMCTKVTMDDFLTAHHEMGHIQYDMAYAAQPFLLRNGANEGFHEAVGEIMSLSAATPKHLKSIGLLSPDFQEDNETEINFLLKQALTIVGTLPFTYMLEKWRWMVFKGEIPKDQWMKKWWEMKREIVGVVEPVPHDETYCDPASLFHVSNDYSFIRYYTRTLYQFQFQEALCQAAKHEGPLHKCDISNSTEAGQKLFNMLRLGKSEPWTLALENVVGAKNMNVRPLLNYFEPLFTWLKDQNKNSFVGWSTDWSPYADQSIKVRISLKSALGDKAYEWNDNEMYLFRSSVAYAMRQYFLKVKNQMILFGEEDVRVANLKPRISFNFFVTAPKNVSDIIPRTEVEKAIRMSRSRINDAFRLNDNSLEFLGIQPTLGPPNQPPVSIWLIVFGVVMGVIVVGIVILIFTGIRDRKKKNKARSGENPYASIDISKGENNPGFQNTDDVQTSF

Molecule	Kd [1]	also measured
C[C@H](NC(=O)[C@@H]1CCCN1C(=O)[C@H](Cc1ccccc1)NC(=O)[C@H](CCCNC(=N)N)NC(=O)[C@H](Cc1c[nH]c2ccccc12)NC(=O)[C@@H](N)CCCNC(=N)N)C(=O)N[C@@H](CCCNC(=N)N)C(=O)N1CCC[C@H]1C(N)=O [MBM1, reference compound] (H-RWRFPARP-NH2)	0.03 µM	–
CC(C)[C@H](NC(=O)[C@@H]1CCCCN1C(=O)[C@H](CC1CCC1)NC(=O)[C@H](CCCNC(=N)N)NC(=O)CCOCCOCCOCCOCCNC(=O)CCCC[C@@H]1SC[C@@H]2NC(=O)N[C@@H]21)C(=O)N[C@@H](CCCNC(=N)N)C(=O)N1CCCC[C@H]1C(=O)N[C@@H](CCCNC(=N)N)C(N)=O [hit 1] ({Biotin-PEG4}-R[Cba][Pip]VR[Pip]R-NH2)	0.034 µM	–
CN=C(NC)NCCC[C@H](NC(=O)[C@@H](NC(=O)[C@@H]1CCCCN1C(=O)[C@H](CC1CCCCC1)NC(=O)[C@H](CCCCN)NC(=O)CCOCCOCCOCCOCCNC(=O)CCCC[C@@H]1SC[C@@H]2NC(=O)N[C@@H]21)C(C)C)C(=O)N1CCCC[C@H]1C(=O)N[C@@H](CCCNC(=N)N)C(N)=O [hit 6-1] ({Biotin-PEG4}-K[Cha][Pip]V[Arg(Me2s)][Pip]R-NH2)	0.02 µM	–
CC(C)[C@H](NC(=O)[C@@H]1CCCCN1C(=O)[C@H](CC1CCCCC1)NC(=O)[C@H](CCN)NC(=O)CCOCCOCCOCCOCCNC(=O)CCCC[C@@H]1SC[C@@H]2NC(=O)N[C@@H]21)C(=O)N[C@@H](CCCNC(=N)N)C(=O)N1CCCC[C@H]1C(=O)N[C@@H](Cc1ccc(CN)cc1)C(N)=O [hit 6-2] ({Biotin-PEG4}-[Dab][Cha][Pip]VR[Pip][Phe(4-CH2NH2)]-NH2)	0.045 µM	–
CC(C)[C@H](NC(=O)[C@@H]1CCCCN1C(=O)[C@H](CC1CCCCC1)NC(=O)[C@H](CCN)NC(=O)CCOCCOCCOCCOCCNC(=O)CCCC[C@@H]1SC[C@@H]2NC(=O)N[C@@H]21)C(=O)N[C@@H](CCCCNC(=N)N)C(=O)N1CCCC[C@H]1C(=O)N[C@@H](CCCNC(=N)N)C(N)=O [hit 6-3] ({Biotin-PEG4}-[Dab][Cha][Pip]V[hArg][Pip]R-NH2)	0.034 µM	–
CNCCCC[C@H](NC(=O)[C@@H](NC(=O)[C@@H]1CCCCN1C(=O)[C@H](CC1CCCCC1)NC(=O)[C@H](CCCCN)NC(=O)CCOCCOCCOCCOCCNC(=O)CCCC[C@@H]1SC[C@@H]2NC(=O)N[C@@H]21)C(C)C)C(=O)N1CCCC[C@H]1C(=O)N[C@@H](CCCNC(=N)N)C(N)=O [hit 6-4] ({Biotin-PEG4}-K[Cha][Pip]V[Lys(Me)][Pip]R-NH2)	0.087 µM	–
CNCCCC[C@H](NC(=O)[C@@H](NC(=O)[C@@H]1CCCCN1C(=O)[C@H](CC1CCCCC1)NC(=O)[C@H](Cc1c[nH]cn1)NC(=O)CCOCCOCCOCCOCCNC(=O)CCCC[C@@H]1SC[C@@H]2NC(=O)N[C@@H]21)C(C)C)C(=O)N1CCCC[C@H]1C(=O)N[C@@H](CCCNC(=N)N)C(N)=O [hit 6-5] ({Biotin-PEG4}-H[Cha][Pip]V[Lys(Me)][Pip]R-NH2)	0.11 µM	–
CC(C)[C@H](NC(=O)[C@@H]1CCCCN1C(=O)[C@H](CC1CCCCC1)NC(=O)[C@H](CCCNC(=N)N)NC(=O)CCOCCOCCOCCOCCNC(=O)CCCC[C@@H]1SC[C@@H]2NC(=O)N[C@@H]21)C(=O)N[C@@H](CCCNC(=N)N)C(=O)N1CCCC[C@H]1C(=O)N[C@@H](CCCNC(=N)N)C(N)=O [hit 6] ({Biotin-PEG4}-R[Cha][Pip]VR[Pip]R-NH2)	0.04 µM	–
C[C@H](NC(=O)[C@@H]1CCCN1C(=O)[C@H](Cc1ccccc1)NC(=O)[C@H](CCCNC(=N)N)NC(=O)[C@H](Cc1c[nH]c2ccccc12)NC(=O)[C@@H](N)CCCNC(=N)N)C(=O)N[C@@H](CCCNC(=N)N)C(=O)N1CCC[C@H]1C(=O)N[C@@H](CCCNC(=N)N)C(N)=O [tMBM1] (H-RWRFPARPR-NH2)	0.014 µM	–
C[C@H](NC(=O)[C@@H]1CCCN1C(=O)[C@H](Cc1ccccc1)NC(=O)[C@H](CCCNC(=N)N)NC(=O)[C@H](Cc1c[nH]c2ccccc12)NC(=O)CCOCCOCCOCCOCCNC(=O)CCCC[C@@H]1SC[C@@H]2NC(=O)N[C@@H]21)C(=O)N[C@@H](CCCNC(=N)N)C(=O)N1CCC[C@H]1C(=O)N[C@@H](CCCNC(=N)N)C(N)=O [tMBM2] ({Biotin-PEG4}-WRFPARPR-NH2)	0.067 µM	–
C[C@H](NC(=O)[C@@H]1CCCN1C(=O)[C@H](Cc1ccccc1)NC(=O)[C@H](CCCNC(=N)N)NC(=O)CCOCCOCCOCCOCCNC(=O)CCCC[C@@H]1SC[C@@H]2NC(=O)N[C@@H]21)C(=O)N[C@@H](CCCNC(=N)N)C(=O)N1CCC[C@H]1C(=O)N[C@@H](CCCNC(=N)N)C(N)=O [tMBM3] ({Biotin-PEG4}-RFPARPR-NH2)	> 3.8 µM	KD (nM), apparent dissociation constant [1]: 3800 nM
YPYDVPDYAK [HA tag]	–	capture by control protein (human ACE2): not captured
B1	–	Kd [2]: > 3.8 µM
